{
  "source": "paper PMC4046112",
  "about": "“eIF2B is a decameric guanine nucleotide exchange factor with a γ2ε2 tetrameric core” (Nature Communications, 2014)",
  "target": "T1, eIF2Bγ in the eIF2Bγε core complex (γ2ε2) (Saccharomyces cerevisiae, UniProt P09032)",
  "T1 construct": "gene GCD1; γε core co-overexpressed in yeast, γ-subunit C-terminally FLAG-tagged (GCD1-FLAG2-His6), anti-FLAG purified; GTP adduct seen on dissociated γ; with Translation initiation factor eIF2B subunit epsilon",
  "T1 sequence (P09032 1-578)": "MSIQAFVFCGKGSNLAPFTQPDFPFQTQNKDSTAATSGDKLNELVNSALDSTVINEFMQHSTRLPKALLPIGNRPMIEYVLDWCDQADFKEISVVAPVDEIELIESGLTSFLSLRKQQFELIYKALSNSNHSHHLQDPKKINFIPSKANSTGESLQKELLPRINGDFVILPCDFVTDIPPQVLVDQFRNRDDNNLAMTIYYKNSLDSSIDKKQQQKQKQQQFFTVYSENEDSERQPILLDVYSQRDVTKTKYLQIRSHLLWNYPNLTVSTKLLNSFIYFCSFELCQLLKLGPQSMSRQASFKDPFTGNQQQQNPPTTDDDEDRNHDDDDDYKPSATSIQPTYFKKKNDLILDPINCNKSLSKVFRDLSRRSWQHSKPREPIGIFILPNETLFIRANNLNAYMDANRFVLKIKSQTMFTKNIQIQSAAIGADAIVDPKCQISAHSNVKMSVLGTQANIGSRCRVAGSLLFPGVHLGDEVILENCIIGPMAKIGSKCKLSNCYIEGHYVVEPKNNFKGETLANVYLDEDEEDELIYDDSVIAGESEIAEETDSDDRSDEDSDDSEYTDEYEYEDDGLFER",
  "T1 sequence (P32501 1-712 partner)": "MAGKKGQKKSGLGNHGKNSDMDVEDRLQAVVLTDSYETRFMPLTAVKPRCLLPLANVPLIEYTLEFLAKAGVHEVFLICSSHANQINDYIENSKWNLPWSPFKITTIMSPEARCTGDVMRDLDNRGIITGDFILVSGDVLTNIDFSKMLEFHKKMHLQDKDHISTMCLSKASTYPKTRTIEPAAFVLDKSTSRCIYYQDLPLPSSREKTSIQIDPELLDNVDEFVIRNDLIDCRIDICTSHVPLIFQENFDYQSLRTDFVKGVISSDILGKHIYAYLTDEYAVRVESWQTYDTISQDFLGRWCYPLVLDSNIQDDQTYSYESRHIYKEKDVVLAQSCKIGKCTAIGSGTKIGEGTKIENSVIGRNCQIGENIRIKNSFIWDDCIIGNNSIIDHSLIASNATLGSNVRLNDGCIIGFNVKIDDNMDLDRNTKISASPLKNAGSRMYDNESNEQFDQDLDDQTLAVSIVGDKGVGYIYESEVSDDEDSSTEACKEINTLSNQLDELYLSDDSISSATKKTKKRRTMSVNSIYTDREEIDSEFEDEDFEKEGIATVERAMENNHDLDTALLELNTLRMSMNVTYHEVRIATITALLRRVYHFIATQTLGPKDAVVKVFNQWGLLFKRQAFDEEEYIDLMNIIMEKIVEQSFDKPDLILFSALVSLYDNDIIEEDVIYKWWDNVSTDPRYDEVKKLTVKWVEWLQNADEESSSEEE",
  "experiment": "photo-cross-linking and native nano-electrospray MS",
  "assay_type": "binding",
  "details": "10 mM 6-Thio-GTP; UV 365 nm 5 min on ice; 500 mM ammonium acetate; covalent (photo-cross-link); adduct on γ-subunit",
  "data": [
    {"smiles": "Nc1nc(=S)c2ncn([C@@H]3O[C@H](COP(=O)(O)OP(=O)(O)OP(=O)(O)O)[C@@H](O)[C@H]3O)c2[nH]1", "note": "[6-Thio-GTP]", "values": [
      {"measurement": "photo-cross-linking and native nano-electrospray MS", "value": "After incubation with 6-Thio-GTP and ultraviolet irradiation, the intensity of the GTP-bound population"}
    ]}
  ]
}
